Measurements reported in patent publication US12226412B2, “Heteroaryl-ketone fused azadecalin glucocorticoid receptor modulators” (Corcept Therapeutics, Inc., priority 2012, dated 2025).
Read-outs that look alike come from different tables or passages of the source.

Columns and labels:
human recombinant GR = target: T1, human recombinant GR (Homo sapiens, UniProt P04150); assay: Human glucocorticoid receptor (GR) fluorescence polarisation (FP) binding assay
T1 construct: purchased PanVera P2812
T1 sequence (P04150 1-777): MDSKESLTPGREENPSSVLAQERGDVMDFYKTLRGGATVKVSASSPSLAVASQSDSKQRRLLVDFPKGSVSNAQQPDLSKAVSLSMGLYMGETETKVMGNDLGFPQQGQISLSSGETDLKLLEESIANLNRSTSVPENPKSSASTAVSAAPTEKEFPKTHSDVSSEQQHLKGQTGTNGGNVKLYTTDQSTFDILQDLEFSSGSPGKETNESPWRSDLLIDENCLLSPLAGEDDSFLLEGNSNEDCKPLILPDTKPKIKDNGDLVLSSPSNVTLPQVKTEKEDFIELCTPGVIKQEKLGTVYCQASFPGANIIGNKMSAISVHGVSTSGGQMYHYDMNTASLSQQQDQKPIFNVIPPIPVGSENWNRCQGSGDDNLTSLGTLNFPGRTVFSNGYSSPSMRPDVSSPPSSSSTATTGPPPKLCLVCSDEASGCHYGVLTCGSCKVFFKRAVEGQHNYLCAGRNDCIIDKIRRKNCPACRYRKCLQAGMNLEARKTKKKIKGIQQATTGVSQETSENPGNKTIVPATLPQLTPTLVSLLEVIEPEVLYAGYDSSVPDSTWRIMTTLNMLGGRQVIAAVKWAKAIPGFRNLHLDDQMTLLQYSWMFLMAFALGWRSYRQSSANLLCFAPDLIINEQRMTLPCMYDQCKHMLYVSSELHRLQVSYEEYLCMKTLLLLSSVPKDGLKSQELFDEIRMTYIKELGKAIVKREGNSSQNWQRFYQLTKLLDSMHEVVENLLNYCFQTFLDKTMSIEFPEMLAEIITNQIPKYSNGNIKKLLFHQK
Description: Human Glucocorticoid Receptor (GR) Fluorescence Polarisation (FP) Binding Assay
The following is a description of a FP assay for measuring compound inhibition of labelled glucocorticoid binding to the human recombinant GR.
The binding affinity of test compounds was determined using a FP binding assay using human recombinant GR (PanVera P2812) and a fluorescent labelled glucocorticoid ligand (Fluorome GS Red) (PanVera P2894). The presence of inhibitors prevents the formation of a GS Red/GR complex resulting in a decrease in the measured polarisation value. The change in polarisation value in the presence of test compounds is used to calculate the binding affinity of the compound for GR.
This assay was performed in 384 well, black, round-bottom, polypropylene micro titre plates in a final volume of 20 μl. The assay contained 5 μl 1 nM GR (final concentration), 5 μl 0.5 nM Fluorome GS Red (final concentration) in the presence of 10 μl test compounds. Positive control wells (high polarisation) receive, 10 μl 2% (v: v) DMSO vehicle (1% (v/v) final concentration)+5 μl 1 nM GR and 5 μl 0.5 nM Fluorome GS Red. […] Assay blank background wells (used for normalisation) receive 15 μl 1× GS screening buffer+5 μl GR.
Compounds were prepared as solubilised solids at 10 mM in DMSO. On the day of assay, an 8 point half-log serial dilution (55 μl DMSO+25 μl compound solution) was prepared. A 1:50 dilution (1 μl compound solution+49 μl 1× GR screening buffer) was prepared for each compound. The compounds were prepared at 2× final assay concentration.
The plates were mixed and incubated for 4 hour at room temperature.
10× GR screening buffer (100 mM potassium phosphate pH 7.4, 200 mM Na2MoO4, 1 mM EDTA, 20% (v/v) DMSO). To prepare 1× GR screening buffer, combine 1 ml 10× GR screening buffer (PanVera P2814)+1 ml stabilising peptide (PanVera P2815)+7.95 ml 4° C. MQ water. Add 50 μl 1M DTT, vortex and place on ice until use.

[1] = tested on: induction of TAT by dexamethasone in HepG2 cells; assay: HepG2 tyrosine aminotransferase (TAT) assay; format: cell-based, human
Description: Example 21. HepG2 Tyrosine Aminotransferase (TAT) Assay
Glucocorticoid mediated activation of TAT occurs by transactivation of glucocorticoid response elements in the TAT promoter by glucocorticoid receptor agonist complex.
TAT activity was measured as outlined in the literature by A. Ali et al., J. Med. Chem., 2004, 47, 2441-2452.
HepG2 cells were cultured using MEME media supplemented with 10% (v/v) foetal bovine serum; 2 mM L-glutamine and 1% (v/v) NEAA at 37° C., 5%/95% (v/v) CO2/air. The HepG2 cells were counted and adjusted to yield a density of 0.125×10^6 cells/ml in RPMI 1640 without phenol red, 10% (v/v) charcoal stripped FBS, 2 mM L-glutamine and seeded at 25,000 cells/well in 200 μl into 96 well, sterile, tissue culture micro titre plates, and incubated at 37° C., 5% CO2 for 24 hours
Growth media was removed and replaced with assay media {RPMI 1640 without phenol red, 2 mM L-glutamine+10 μM forskolin}. […] Compounds were serially half log diluted in 100% (v/v) dimethylsupfoxide from a 10 mM stock.
HepG2 cells were then lysed with 30 μl of cell lysis buffer containing a protease inhibitor cocktail for 15 minutes at 4° C. 155 μl of substrate mixture was then added containing 5.4 mM Tyrosine sodium salt, 10.8 mM alpha ketoglutarate and 0.06 mM pyridoxal 5′ phosphate in 0.1M potassium phosphate buffer (pH 7.4). After 2 hours incubation at 37° C. the reaction was terminated by the addition of 15 μl of 10M aqueous potassium hydroxide solution, and the plates incubated for a further 30 minutes at 37° C. The TAT activity product was measured by absorbance at […].
[compound] and fitting the data to a 4 parameter logistic equation.

[2] = human recombinant GR, fluorescence polarisation binding assay, read-out: GR binding
[3] = HepG2 cells, challenge of 100 nM dexamethasone, Ki from IC50 by Cheng and Prusoff equation

Ki (human recombinant GR; [2]) [nM]	SMILES	Ki [1, 3] [nM]	Ki (human recombinant GR) [nM]	Ki [1] [nM]
0.5 to 1	O=C(c1nccs1)[C@]12Cc3cnn(-c4ccc(F)cc4)c3C=C1CCN(S(=O)(=O)CC1CCCO1)C2 (mixture of isomers) [Example 2B, ((4a R)-1-(4-fluorophenyl)-6-((((R/S)-tetrahydrofuran-2-yl)methyl)sulfonyl)-4,4a,5,6,7,8-hexahydro-1H-pyrazolo[3,4-g]isoquinolin-4a-yl)(thiazol-2-yl)methanone]	≥ 100	–	–
< 0.5	Cn1ncc(S(=O)(=O)N2CCC3=Cc4c(cnn4-c4ccc(F)cc4)C[C@]3(C(=O)c3cscn3)C2)n1 (single isomer, unassigned) [Example 11DA]	< 20	–	–
< 0.5	Cn1ncc(S(=O)(=O)N2CCC3=Cc4c(cnn4-c4ccc(F)cc4)C[C@]3(C(=O)c3ccccn3)C2)n1 (single isomer, unassigned) [Example 11DB]	< 20	–	–
0.5 to 1	CCCn1ncc(S(=O)(=O)N2CCC3=Cc4c(cnn4-c4ccc(F)cc4)C[C@]3(C(=O)c3cc(C(F)(F)F)ccn3)C2)n1 (single isomer, unassigned) [Example 11DC]	< 20	–	–
< 0.5	CCCn1ncc(S(=O)(=O)N2CCC3=Cc4c(cnn4-c4ccc(F)cc4)C[C@]3(C(=O)c3nccs3)C2)n1 (single isomer, unassigned) [Example 12AA]	20 to 100	–	–
< 0.5	Cn1ncc(S(=O)(=O)N2CCC3=Cc4c(cnn4-c4ccc(F)cc4)C[C@]3(C(=O)c3nccs3)C2)n1 (single isomer, unassigned) [Example 12Z]	≥ 100	–	–
–	O=C(c1ccccn1)[C@]12Cc3cnn(-c4ccc(F)cc4)c3C=C1CCN(S(=O)(=O)c1ccc(C(F)(F)F)cc1)C2 [Example 1, (R)-(1-(4-fluorophenyl)-6-((4-(trifluoromethyl)phenyl)sulfonyl)-4,4a,5,6,7,8-hexahydro-1H-pyrazolo[3,4-g]isoquinolin-4a-yl)(pyridin-2-yl)methanone]	–	< 0.5	< 20
0.5 to 1	Cn1ccnc1C(=O)[C@]12Cc3cnn(-c4ccc(F)cc4)c3C=C1CCN(S(=O)(=O)c1ccc(C(F)(F)F)cc1)C2 [Example 1A, (R)-(1-(4-fluorophenyl)-6-((4-(trifluoromethyl)phenyl)sulfonyl)-4,4a,5,6,7,8-hexahydro-1H-pyrazolo[3,4-g]isoquinolin-4a-yl)(1-methyl-1H-imidazol-2-yl)methanone]	20 to 100	–	–
–	O=C(c1cccnc1)[C@]12Cc3cnn(-c4ccc(F)cc4)c3C=C1CCN(S(=O)(=O)c1ccc(C(F)(F)F)cc1)C2 [Example 1B, (R)-(1-(4-fluorophenyl)-6-((4-(trifluoromethyl)phenyl)sulfonyl)-4,4a,5,6,7,8-hexahydro-1H-pyrazolo[3,4-g]isoquinolin-4a-yl)(pyridin-3-yl)methanone]	–	0.5 to 1	> 100
–	O=C(c1nccs1)[C@]12Cc3cnn(-c4ccc(F)cc4)c3C=C1CCN(S(=O)(=O)c1ccc(C(F)(F)F)cc1)C2 [Example 1C, (R)-(1-(4-fluorophenyl)-6-((4-(trifluoromethyl)phenyl)sulfonyl)-4,4a,5,6,7,8-hexahydro-1H-pyrazolo[3,4-g]isoquinolin-4a-yl)(thiazol-2-yl)methanone]	–	< 0.5	< 20
> 1	Cc1nnc(C(=O)[C@]23Cc4cnn(-c5ccc(F)cc5)c4C=C2CCN(S(=O)(=O)c2ccc(C(F)(F)F)cc2)C3)o1 [Example 1D, (R)-(1-(4-fluorophenyl)-6-((4-(trifluoromethyl)phenyl)sulfonyl)-4,4a,5,6,7,8-hexahydro-1H-pyrazolo[3,4-g]isoquinolin-4a-yl)(5-methyl-1,3,4-oxadiazol-2-yl)methanone]	≥ 100	–	–
–	O=C(c1cocn1)[C@]12Cc3cnn(-c4ccc(F)cc4)c3C=C1CCN(S(=O)(=O)c1ccc(C(F)(F)F)cc1)C2 [Example 1E, (R)-(1-(4-fluorophenyl)-6-((4-(trifluoromethyl)phenyl)sulfonyl)-4,4a,5,6,7,8-hexahydro-1H-pyrazolo[3,4-g]isoquinolin-4a-yl)(oxazol-4-yl)methanone]	20 to 100	< 0.5	–
< 0.5	O=C(c1ncco1)[C@]12Cc3cnn(-c4ccc(F)cc4)c3C=C1CCN(S(=O)(=O)c1ccc(C(F)(F)F)cc1)C2 [Example 1F, (R)-(1-(4-fluorophenyl)-6-((4-(trifluoromethyl)phenyl)sulfonyl)-4,4a,5,6,7,8-hexahydro-1H-pyrazolo[3,4-g]isoquinolin-4a-yl)(oxazol-2-yl)methanone]	20 to 100	–	–
–	O=C(c1ccco1)[C@]12Cc3cnn(-c4ccc(F)cc4)c3C=C1CCN(S(=O)(=O)c1ccc(C(F)(F)F)cc1)C2 [Example 1G, (R)-(1-(4-fluorophenyl)-6-((4-(trifluoromethyl)phenyl)sulfonyl)-4,4a,5,6,7,8-hexahydro-1H-pyrazolo[3,4-g]isoquinolin-4a-yl)(furan-2-yl)methanone]	–	< 0.5	20 to 100
< 0.5	O=C(c1ccccn1)[C@]12Cc3cnn(-c4ccc(F)cc4)c3C=C1CCN(S(=O)(=O)c1cncc(N3CCCCC3)c1)C2 [Example 10A, (R)-(1-(4-fluorophenyl)-6-((5-(piperidin-1-yl)pyridin-3-yl)sulfonyl)-4,4a,5,6,7,8-hexahydro-1H-pyrazolo[3,4-g]isoquinolin-4a-yl)(pyridin-2-yl)methanone]	–	–	–
< 0.5	Cc1cnc(C(=O)[C@]23Cc4cnn(-c5ccc(F)cc5)c4C=C2CCN(S(=O)(=O)c2ccc(Cl)c(Cl)c2)C3)s1 [Example 12O, (R)-(6-((3,4-dichlorophenyl)sulfonyl)-1-(4-fluorophenyl)-4,4a,5,6,7,8-hexahydro-1H-pyrazolo[3,4-g]isoquinolin-4a-yl)(5-methylthiazol-2-yl)methanone]	–	–	–
–	Cn1cc(S(=O)(=O)N2CCC3=Cc4c(cnn4-c4ccc(F)cc4)C[C@]3(C(=O)c3ccccn3)C2)ccc1=O [Example 17, (R)-5-((1-(4-fluorophenyl)-4a-picolinoyl-4a,5,7,8-tetrahydro-1H-pyrazolo [3,4-g]isoquinolin-6 (4H)-yl)sulfonyl)-1-methylpyridin-2 (1H)-one]	≥ 100	–	–
